In general, IC50 refers to the concentration needed to halve the response being measured. Low values mean inhibition by little substance, high ones a need for much substance.

Results on 30 molecules are retold here after BindingDB's records for doi:10.1111/cbdd.12463 (University of California San Diego, 2015).

Assay [1] concerns the target T1, Decaprenyl diphosphate synthase (Mycobacterium tuberculosis (strain CDC 1551 / Oshkosh), UniProt P9WFF6).
T1 sequence (P9WFF6 whole entry): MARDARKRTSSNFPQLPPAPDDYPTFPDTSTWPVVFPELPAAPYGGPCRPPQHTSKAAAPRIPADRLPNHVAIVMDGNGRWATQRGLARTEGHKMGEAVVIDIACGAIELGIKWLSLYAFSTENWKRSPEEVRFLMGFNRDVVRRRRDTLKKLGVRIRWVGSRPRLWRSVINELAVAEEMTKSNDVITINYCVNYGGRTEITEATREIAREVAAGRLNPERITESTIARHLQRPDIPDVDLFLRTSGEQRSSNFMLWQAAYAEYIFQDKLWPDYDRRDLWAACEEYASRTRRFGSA
The assay can be described thus: DPPS Inhibition (cis FPP based) Assay. The note with it: pH 7.5. The source says:
We screened an in-house library of 19 compounds using cis-FPP as substrate.

Assay [2] deals with T1, Decaprenyl diphosphate synthase. The experiment in a line: DPPS Inhibition (GPP based) Assay. To be noted: pH 7.5. The source says:
We screened an in-house library of 43 compounds using GPP as substrate.

Assay [3] has the same target. The assay can be described thus: DPPS Inhibition (trans FPP based) Assay. The note with it: pH 7.5. An excerpt:
We screened an in-house library of 53 compounds using trans-FPP as substrate.

The target in assay [4] is T2, Tuberculosinyl adenosine transferase (Mycobacterium tuberculosis (strain CDC 1551 / Oshkosh), UniProt P9WJ60).
T2 sequence (P9WJ60 whole entry): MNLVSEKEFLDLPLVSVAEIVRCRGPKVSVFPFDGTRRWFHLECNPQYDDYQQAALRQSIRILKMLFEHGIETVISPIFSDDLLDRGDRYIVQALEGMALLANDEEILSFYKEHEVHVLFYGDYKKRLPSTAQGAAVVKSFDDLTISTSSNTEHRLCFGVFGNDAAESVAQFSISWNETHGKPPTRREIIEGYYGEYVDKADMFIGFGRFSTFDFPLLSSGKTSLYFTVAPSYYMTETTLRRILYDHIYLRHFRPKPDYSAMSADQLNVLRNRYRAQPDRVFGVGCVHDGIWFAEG
The assay can be described thus: Rv3378c Inhibition Assay. On the procedure:
For inhibition assay of Rv3378c, using tuberculosinyl diphosphate and adenosine as substrates, a mixture of 100 µM TPP, 100 µM adenosine,75 µg/mL Rv3378c, and inhibitors in the assay buffer (25 mM Tris-HCl, 1 mM MgCl2, 0.01% Triton-X-100) was incubated for 2 h at 37 °C.

Regarding `CCCCCCCCOc1cccc(C(=O)Nc2cc(OC)c(OC)cc2C(=O)O)c1` [BPH-1294], the IC50 in assay [1] is 62 µM; in assay [2], 0.205 µM.

For `C=CCC(/C=C/C(=O)Nc1ccc(F)cc1C(=O)O)OCCCCCCCC` (centres undefined) [BPH-1463], the figures for the IC50 in assay [1] and in assay [2] were 90 µM and 0.031 µM, respectively. The matching figures for `CCCCCCCCOc1cccc(C(=O)Nc2ccc([N+](=O)[O-])cc2C(=O)O)c1` [BPH-1247]: 49 µM and 0.119 µM. As for `O=P(O)(O)C(O)(Cc1cccc(-c2cccc(NS(=O)(=O)c3cccc(S(=O)(=O)Nc4cccc(-c5cccc(CC(O)(P(=O)(O)O)P(=O)(O)O)c5)c4)c3)c2)c1)P(=O)(O)O` [BPH-789], the IC50 in assay [2] came to 0.36 µM; in assay [3] it was 5.4 µM. Consider `CCCCCCCCCCOc1cccc(COc2ccccc2P(=O)(O)O)c1` [BPH-1159], for which half-maximal inhibition in assay [1] (IC50) required 55 µM.

Regarding `O=P(O)(O)C(O)(Cc1cccc(-c2cccc3c2oc2ccccc23)c1)P(=O)(O)O` [[1-hydroxy-2-(3-{8-oxatricyclo[7.4.0.0^{2,7}]trideca-1(13),2,4,6,9,11-hexaen-6-yl}phenyl)-1-phosphonoethyl]phosphonic acid], the IC50 in assay [4] was found to be 0.21 µM; in assay [3], 19 µM.

With `CCCCCCCCOc1ccc(F)c(C(=O)Nc2ccc(F)cc2C(=O)O)c1` [BPH-1485], the IC50 worked out at 20 µM in assay [1] and 0.308 µM in assay [2].

`O=C(O)c1ccccc1SCc1cccc(Oc2ccccc2)c1` [BPH-1125]: the figures for the IC50 in assay [1] and in assay [2] were 30 µM and 1.2 µM, respectively.

With `CCCCCCCCOc1cccc(COc2ccc(S(=O)(=O)N3CCOCC3)cc2C(=O)O)c1` [BPH-1158], the half-maximal inhibitory concentration (IC50) in assay [1] came out at 83 µM; in assay [2], 1.4 µM. Consider `CCCCCCCCOc1cccc(C(=O)Nc2ccc(Br)cc2C(=O)O)c1` [BPH-1264], for which the results for the IC50 in assay [1] and in assay [2] were 11 µM and 0.068 µM, respectively. The molecule `CCCCCCCCCCOc1cccc(CSc2ccccc2C(=O)O)c1` [BPH-1102] registered an IC50 in assay [1] of 19 µM. This counts as double-digit micromolar. On the same count and under the same terms, in the case of `CCCCCCCCOc1cccc(CO/C=C/C=C(\C=C\C(=O)O)S(=O)(=O)N(C)C)c1` [BPH-1152] it was 83 µM.

`CCCCCCCCCCCCCCCn1cc[n+](CC(O)(P(=O)(O)O)P(=O)(O)O)c1` [BPH-1325]: the IC50 in assay [1] turned out to be 36 µM. In the case of `CCCCCCCCOc1ccc(C(=O)CSCC(=O)O)cc1` [BPH-1391], the IC50 in assay [1] is 82 µM.

Take `Cc1ccc(S(=O)(=O)N2CCN(c3ccc(C(=O)/C=C(\O)C(=O)O)cc3)CC2)cc1` [BPH-1380]: the IC50 in assay [1] is 20 µM. For the molecule `O=P(O)(O)C(O)(Cc1ccc(-c2cccc(-c3ccccc3)c2)cc1)P(=O)(O)O` [BPH-625], the IC50 in assay [3] was found to be 291 µM. For the molecule `O=P(O)(O)C(O)(c1cccc(-c2cccc(-c3ccccc3)c2)c1)P(=O)(O)O` [BPH-640], the IC50 in assay [1] was 0.61 µM; in assay [2] it was 0.41 µM. `O=P(O)(O)C(O)(c1cccc(-c2ccccc2)c1)P(=O)(O)O` [(biphenyl-3-yl-hydroxy-phosphono-methyl)-phosphonic acid] showed an IC50 in assay [3] of 40 µM. In turn, `CCCCCCCCOc1cccc(C(=O)Nc2ccc(S(N)(=O)=O)cc2C(=O)O)c1` [BPH-1255] displayed a half-inhibitory concentration (IC50) in assay [1] of 65 µM. On to `C(=C\c1cc2ccc(C3=NCCN3)cc2[nH]1)/c1cc2ccc(C3=NCCN3)cc2[nH]1` [BPH-1417], for which the IC50 in assay [1] worked out at 20 µM; in assay [2] it was 0.49 µM; in assay [4], 0.66 µM.

Molecule `O=P(O)(O)C(O)(Cc1cccc(-c2ccccc2)c1)P(=O)(O)O` [BPH-294] yielded an IC50 in assay [3] of 7.5 µM. On to `O=P(O)(O)C(O)(Cc1ccc(-c2ccc(-c3ccccc3)cc2)cc1)P(=O)(O)O` [BPH-626], for which the IC50 in assay [3] was determined as 51 µM.

Molecule `O=P(O)(O)C(O)(Cc1cccc(-c2cccc(NS(=O)(=O)c3ccc(-c4ccccc4)cc3)c2)c1)P(=O)(O)O` [BPH-782] showed an IC50 in assay [3] of 23 µM. Molecule `O=P(O)(O)C(O)(c1ccc(-c2ccccc2)cc1)P(=O)(O)O` [(Biphenyl-4-yl-hydroxy-phosphono-methyl)-phosphonic acid] gave an IC50 in assay [3] of 17 µM. The same measure, in the same setting: as for `O=P(O)(O)C(C[n+]1ccc(-c2ccc(-c3ccccc3)cc2)cc1)P(=O)(O)O` [BPH-632], the figure is 498 µM. For `CCCCCCCCOc1cc(O)cc(COc2ccc(Br)cc2C(=O)O)c1` [BPH-1311], the IC50 was 56 µM in assay [1] and 2.9 µM in assay [2]. `O=P(O)(O)C(O)(Cc1cccc(-c2cccc(NS(=O)(=O)c3ccc4ccccc4c3)c2)c1)P(=O)(O)O` [(1-hydroxy-2-{3-[3-(naphthalene-2-sulfonamido)phenyl]phenyl}-1-phosphonoethyl)phosphonic acid]: the IC50 in assay [3] is 8.2 µM. In the case of `CCCCCCCCOc1cccc(C(=O)Nc2cccc(C(=O)O)c2C(O)O)c1` [BPH-1461], the IC50 was 55 µM in assay [1] and 0.164 µM in assay [2]. Turning to `O=C(Nc1cccc(C2=NCCN2)c1)c1ccc(-c2ccc(C(=O)Nc3cccc(C4=NCCN4)c3)cc2)cc1` [50460, 14], in assay [4], the IC50 was found to be 96 µM. Molecule `O=C(O)/C(O)=C/C(=O)c1ccc(N2CCN(C(=O)c3cccc(-c4ccccc4)c3)CC2)cc1` [BPH-1381] yielded an IC50 in assay [1] of 15 µM.
